As usually defined, the IC50 is the midpoint of a concentration-inhibition curve. For orientation: inhibition means the change of the read-out against control, counted positive when it falls.

Consider 43 compounds from patent EP4011367A1, “COMPOUNDS FOR USE IN THE TREATMENT OF COVID-19” (priority 2020, dated 2022).

This assay addresses T1, SARS-CoV-2 3CL-Pro (Severe acute respiratory syndrome coronavirus 2, UniProt P0DTD1).
T1 construct: SARS-CoV-2 main protease (3CL-Pro), also termed M-Pro
Nature of the assay: biochemical. The following applies: for inhibition at 20 µM: read-out: 3CL-Pro Inhibition [%] Primary Screen (20 µM).

Setting [1] is: dose response, 8 concentrations, absence of DTT, 60 min pre-incubation at 37 °C, 15 µM substrate, 60 nM enzyme, read-out: IC50.

The structures appear in SMILES notation. Counter-ions that a name gives are not always drawn. Like-named read-outs stand apart in the source and are kept apart here.

As for `COc1ccc2[nH]c([S+]([O-])Cc3ncc(C)c(OC)c3C)nc2n1` (racemic) [compound 9, (±)-5-Methoxy-2-(4-methoxy-3,5-dimethylpyridin-2-ylmethylsulfinyl)imidazo[4,5-b]pyridine], the IC50 was found to be 970 nM and the inhibition at 20 µM is 69.1%.

`Oc1cc2c(cc1O)[C@@H]1c3ccccc3CN[C@H]1CC2` (relative stereo) [compound 77, trans-10,11-Dihydroxy-5,6,6a,7,8,12b-hexahydrobenzo[a]phenanthridine] gave an IC50 of 1050 nM.

Regarding `O=c1cc(-c2ccccc2)oc2cc(O)c(O)c(O)c12` [compound 1, 5,6,7-Trihydroxy-2-phenyl-4H-1-benzopyran-4-one], the inhibition at 20 µM was 97.8%.

For `O=C1c2c(O)cc(O)cc2O[C@H](c2cc(O)c(O)c(O)c2)[C@H]1O` [compound 2, (+)-3(R),5,7-Trihydroxy-2(R)-(3,4,5-trihydroxyphenyl)-3,4-dihydro-2H-1-benzopyran-4-one], the inhibition at 20 µM was 99.7%.

As to `O=c1cc(-c2ccc(O)cc2)oc2cc(O)cc(O)c12` [compound 4, 4',5,7-Trihydroxyflavone], the inhibition at 20 µM stood at 94.5%. The IC50 (read-out: IC50) amounted to 3020 nM.

Turning to `C[C@@H]1O[C@@H](Oc2c(-c3cc(O)c(O)c(O)c3)oc3cc(O)cc(O)c3c2=O)[C@H](O)[C@H](O)[C@H]1O` [compound 5, 5,7-Dihydroxy-4-oxo-2-(3,4,5-trihydroxyphenyl)-4H-1-benzopyran-3-yl alpha-L-rhamnopyranoside], the IC50 was 3660 nM and the inhibition at 20 µM came to 90.6%.

In the case of `O=C(O[C@@H]1Cc2c(O)cc(O)cc2O[C@@H]1c1cc(O)c(O)c(O)c1)c1cc(O)c(O)c(O)c1` [compound 6, (-)-3,4,5-Trihydroxybenzoic acid 5,7-dihydroxy-2(R)-(3,4,5-trihydroxyphenyl)-3,4-dihydro-2H-1-benzopyran-3(R)-ylester], the inhibition at 20 µM came out at 95.3%.

With `COCCCOc1ccnc(C[S+]([O-])c2nc3ccccc3[nH]2)c1C` (stereo not drawn) [compound 8, 2-[4-(3-Methoxypropoxy)-3-methylpyridin-2-ylmethylsulfinyl]benzimidazol-1-ide sodium salt], the inhibition at 20 µM worked out at 94.3%. For the same compound, under “read-out: IC50”, the IC50 turned out to be 740 nM.

On to `O=c1c2ccccc2[se]n1-c1ccccc1` [compound 10, 2-Phenyl-1,2-benzisoselenazol-3(2H)-one], for which the inhibition at 20 µM turned out to be 100%.

`Cc1ccc(C)c(-n2sc3cc(F)ccc3c2=O)c1` [compound 11, 2-(2,5-Dimethylphenyl)-6-fluoro-1,2-benzothiazol-3(2H)-one]: the inhibition at 20 µM was 101%. Besides, for the setting “read-out: IC50”, the IC50 amounted to 20 nM.

As to `Cc1ccc(-n2sc3ccccc3c2=O)cc1` [compound 12, 2-(4-methylphenyl)-1,2-benzothiazol-3-one], the IC50 came out at 20 nM and the inhibition at 20 µM came to 101%.

Regarding `CN(C)S(=O)(=O)c1cccc(-n2sc3ccccc3c2=O)c1` [compound 13, N,N-di methyl-3-(3-oxo-1,2-benzothiazol-2-yl)benzenesulfonamide], the inhibition at 20 µM was determined as 101%. Further, under setting [1], the half-inhibitory concentration (IC50) was found to be 20 nM.

Consider `O=c1c2ccccc2sn1-c1ccccc1` [compound 14, 2-phenyl-1,2-benzothiazol-3-one], for which the IC50 amounted to 20 nM and the inhibition at 20 µM worked out at 100%.

Take `O=C1C(Cl)=C(N2CCOCC2)C(=O)N1c1ccc(Cl)c(Cl)c1` [compound 15, 3-chloro-1-(3,4-dichlorophenyl)-4-morpholin-4-ylpyrrole-2,5-dione]: the inhibition at 20 µM was 99.2%. For the same compound, the IC50 (read-out: IC50) turned out to be 1140 nM.

Consider `CN1CCN(C2=C(Cl)C(=O)N(c3ccc(Cl)c(Cl)c3)C2=O)CC1` [compound 16, 3-chloro-1-(3,4-dichlorophenyl)-4-(4-methylpiperazin-1-yl)pyrrole-2,5-dione], for which the inhibition at 20 µM came out at 100%.

For `Cc1ccc(S(=O)(=O)C=CC#N)cc1` [compound 17, 3-(4-Methylphenylsulfonyl)-2-propenenitrile], the IC50 worked out at 820 nM and the inhibition at 20 µM turned out to be 95.7%.

For the compound `CC(C)(C)c1ccc(S(=O)(=O)/C=C/C#N)cc1` [compound 18, 3-(4-tert-Butylphenylsulfonyl)-2(E)-propenenitrile], the inhibition at 20 µM was 100%. For the same compound, the IC50 (read-out: IC50) was 840 nM.

For `Cn1sc(=O)n(Cc2ccccc2)c1=O` [compound 19, 4-Benzyl-2-methyl-1,2,4-thiadiazolidine-3,5-dione], the inhibition at 20 µM was found to be 101%. Where the note is “read-out: IC50”, the IC50 is 140 nM.

`S=c1[nH]nc(Cc2ccccc2)s1` [compound 20, 5-benzyl-3H-1,3,4-thiadiazole-2-thione]: the inhibition at 20 µM worked out at 101%. Moreover, under setting [1], the IC50 is 390 nM.

As to `Cc1ccc(S(=O)(=O)N[C@@H](Cc2ccccc2)C(=O)C(=O)CCl)cc1` [compound 21, N-[(2S)-5-chloro-3,4-dioxo-1-phenylpentan-2-yl]-4-methylbenzenesulfonamide], the IC50 was 1370 nM and the inhibition at 20 µM was found to be 99.7%.

Take `CC(Cc1ccc(O)c(O)c1)C(C)Cc1ccc(O)c(O)c1` (stereo not drawn) [compound 22, 4-[4-(3,4-dihydroxyphenyl)-2,3-dimethylbutyl]benzene-1,2-diol]: the inhibition at 20 µM stood at 98.5%. Besides, the IC50 (read-out: IC50) is 2590 nM.

With `O=C1C2CC=CCC2C(=O)N1SC(Cl)(Cl)Cl` (stereo not drawn) [compound 23, 2-(trichloromethylsulfanyl)-3a,4,7,7a-tetrahydroisoindole-1,3-dione], the inhibition at 20 µM came to 99.8%. Also, the IC50 (read-out: IC50) came out at 670 nM.

In the case of `S=c1[nH]c2ccccc2s1` [compound 24, 3H-1,3-benzothiazole-2-thione], the inhibition at 20 µM stood at 94%. Also, where the note is “read-out: IC50”, the IC50 was found to be 1740 nM.

Regarding `c1ccc2sc(SNC3CCCCC3)nc2c1` [compound 26, N-(1,3-benzothiazol-2-ylsulfanyl)cyclohexanamine], the inhibition at 20 µM was found to be 70.1%. In addition, under “read-out: IC50”, the IC50 was found to be 770 nM.

As for `c1ccc2sc(SN3CCOCC3)nc2c1` [compound 27, 4-(1,3-benzothiazol-2-ylsulfanyl)morpholine], the inhibition at 20 µM was determined as 99%. The 50% inhibitory concentration (IC50) (read-out: IC50) was found to be 5050 nM.

Regarding `CCC(C)SSc1ncc[nH]1` (stereo not drawn) [compound 28, (2-Imidazolyl)(1-methylpropyl)disulfide], the inhibition at 20 µM was 100%.

Consider `O=C(O)c1ccc(SSc2ccc(C(=O)O)cn2)nc1` [compound 29, 6-[(5-carboxypyridin-2-yl)disulfanyl]pyridine-3-carboxylic acid], for which the inhibition at 20 µM stood at 100%. Moreover, the IC50 (read-out: IC50) turned out to be 240 nM.

Regarding `Oc1ccc2ccccc2c1SSc1c(O)ccc2ccccc12` [compound 30, 1,1'-Disulfanediylbis(2-naphthol)], the inhibition at 20 µM was determined as 91.3%. Besides, the 50% inhibitory concentration (IC50) (read-out: IC50) came to 510 nM.

For `O=C1C=Cc2cc(Br)ccc2C1=O` [compound 32, 6-Bromonaphthalene-1,2-dione], the inhibition at 20 µM is 102%. The IC50 (read-out: IC50) is 40 nM.

Consider `C=CC(=O)c1ccc2ccccc2c1` [compound 33, 1-naphthalen-2-ylprop-2-en-1-one], for which the inhibition at 20 µM was determined as 94.5%. For the same compound, the IC50 (read-out: IC50) stood at 1240 nM.

`Nc1ccc(O)c2ncccc12` [compound 34, 5-aminoquinolin-8-ol]: the inhibition at 20 µM is 99.3%. Further, the IC50 (read-out: IC50) stood at 2050 nM.

As to `CCC(=O)OCN1C(=O)C=CC1=O` [compound 36, Propionic acid 2,5-dioxo-2,5-dihydro-1H-pyrrol-1-ylmethyl ester], the inhibition at 20 µM amounted to 100%. Also, where the note is “read-out: IC50”, the IC50 was determined as 290 nM.

For `CN(C)CCNc1nc2cc(O)ccc2c2c1C(=O)c1ccccc1-2` [compound 38, 6-[2-(Dimethylamino)ethylamino]-3-hydroxy-7H-indeno[2,1-c]quinolin-7-one dihydrochloride], the inhibition at 20 µM was 96.1%. Also, the IC50 (read-out: IC50) came to 2990 nM.

Take `CCCC[C@@H](C=O)NC(=O)[C@H](CC(C)C)NC(=O)OCc1ccccc1` [compound 39, N2-[(Benzyloxy)carbonyl]-N-[(2S)-1-oxohexan-2-yl]-L-leucinamide]: the inhibition at 20 µM is 81%.

Turning to `CC(C)[C@H](NC(=O)[C@H](CCC(=O)O)NC(=O)[C@H](CC(=O)O)NC(=O)OCc1ccccc1)C(=O)N[C@@H](CC(=O)O)C(=O)CF` [compound 40, N-(Benzyloxycarbonyl)-L-aspartyl-L-glutamyl-L-valyl-L-aspartylfluoromethane], the half-maximal inhibitory concentration (IC50) is 10 nM and the inhibition at 20 µM was 100%.

As to `CC(=O)[O-].[Hg+][c]1ccccc1` [compound 42, acetyloxy(phenyl)mercury], the half-maximal inhibitory concentration (IC50) was found to be 10 nM.

Consider `O=C1C(Cl)=C(Cl)C(=O)C(Cl)=C1Cl` [compound 43, 2,3,5,6-tetrachlorocyclohexa-2,5-diene-1,4-dione], for which the inhibition at 20 µM was found to be 101%. Also, the IC50 (read-out: IC50) was 20 nM.

Regarding `Nc1nnc(Sc2ncc([N+](=O)[O-])s2)s1` [compound 44, 5-(5-Nitrothiazol-2-ylsulfanyl)-1,3,4-thiadiazol-2-amine], the inhibition at 20 µM was 99.9%. Further, the half-inhibitory concentration (IC50) (read-out: IC50) stood at 30 nM.

`CN(C)C(=S)SSC(=S)N(C)C` [compound 45, dimethylcarbamothioylsulfanyl N ,N-dimethylcarbamodithioate]: the inhibition at 20 µM turned out to be 99.9%. Also, the IC50 (read-out: IC50) turned out to be 50 nM.

For the compound `CCN(CC)C(=S)SSC(=S)N(CC)CC` [compound 46, Tetraethylthioperoxydicarbonic diamide], the inhibition at 20 µM worked out at 99.7%.

On to `[O-]n1ccccc1=S.[O-]n1ccccc1=S.[Zn+2]` [compound 47, Bis[1-hydroxy-2(1H)-pyiridinethionato]zinc], for which the “3CL-Pro Inhibition [%] Primary Screen (20 µM)” value turned out to be 99.7%. The IC50 (read-out: IC50) came to 2460 nM.

As to `On1ccccc1=S` [compound 48, 1-hydroxypyridine-2-thione], half-maximal inhibition (IC50) required 50 nM and the inhibition at 20 µM turned out to be 101%.

As to `O=c1sn(-c2cccc3ccccc23)c(=O)n1Cc1ccccc1` [compound 49, 4-Benzyl-2-(1-naphthyl)-1,2,4-thiadiazolidine-3,5-dione], the inhibition at 20 µM is 101%.
